Publication PMC12197660 (Viruses, 2025)
In brackets after ≈: the same amount, converted by molar mass. Several values for one entry are separate records, joined by “and”; a condition that tells them apart may be missing. Identical values can stand only once. Like-named read-outs stand apart in the source and are kept apart here.

How the values were obtained:
[1] = Radiolabeled metabolism and excretion in rats; assay type: in vivo; settings: for Share of radioactivity in AUC-pooled plasma: analyte after IV RDV
Solubility (PBS) = assay type: physicochemical; settings: aqueous buffer
[2] = Oral ODV PK in portal-vein-cannulated monkey; assay type: in vivo, cynomolgus monkey; settings: for Time of plasma Cmax in both portal and systemic circulation: analyte after oral ODV 14.4 mg/kg, single monkey
[3] = tested on: OATP1B1/3, P-gp, BCRP, ENT1/2, CNT3; experiment: Transporter substrate assessment; assay type: in vitro ADME, human
plasma protein = experiment: Plasma protein binding; assay type: in vitro ADME, mouse, rat, dog, monkey, and human
[4] = Microautoradiography (MARG) of lung and trachea; assay type: in vivo, Sprague Dawley rats; design: Radioactivity in Blood vessels / Radioactivity in Trachea (representative) / Radioactivity in Bronchus (cartilage) / Radioactivity in Bronchus (smooth muscle) / Radioactivity in Bronchus (epithelium) / Radioactivity in Bronchioles / Radioactivity in Alveoli wall: key: +++: moderate levels of silver grains present; ++: low levels of silver grains present; +: background levels of silver grains present; settings: [3H] compound, 30 min IV infusion 10 mg/kg (3700 µCi/kg), 1 h after infusion; per animal; as to Radioactivity in Alveoli sac: key: +++: moderate levels of silver grains present; ++: low levels of silver grains present; +: background levels of silver grains present; as to Radioactivity in Blood vessels: key: +++: moderate levels of silver grains present; ++: low levels of silver grains present; +: background levels of silver grains present; as to Radioactivity in Bronchioles: key: +++: moderate levels of silver grains present; ++: low levels of silver grains present; +: background levels of silver grains present; as to Radioactivity in Bronchus (cartilage): key: +++: moderate levels of silver grains present; ++: low levels of silver grains present; +: background levels of silver grains present
[5] = Plasma stability (Table 1, across species); assay type: in vitro ADME, mouse, rat, dog, monkey, and human
[6] = Permeability (MDCK A-to-B); assay type: in vitro ADME, canine; settings: dog, MDCK-MDR1, pH 7.4
adenosine deaminase = settings: cited from earlier work
[7] = mean ± SD, N = 3, cited from earlier work
LogD = assay type: physicochemical
[8] = human; cited from earlier work
[9] = cited from earlier work
[10] = Intestinal (GI) S9 fraction stability; assay type: in vitro ADME, rat, dog, monkey, and human; settings: for S9 Stability, Intestinal: assessed in rat, dog, monkey, and human
[11] = cited from earlier work; remark: listed apart in the source
[12] = GS-441524 plasma PK across species; settings: for half-life: BALB/c (mouse), Sprague Dawley (rat), beagle (dog)
[13] = cynomolgus monkey; cited from earlier work
[14] = Plasma and PBMC PK after IV RDV 10 mg/kg (Table 2); assay type: in vivo, cynomolgus monkeys
[15] = Hepatic S9 fraction stability; assay type: in vitro ADME, rat, dog, monkey, and human
[16] = tested on: hydrolases (CatA, CES-1/2, HINT1); experiment: Enzyme hydrolysis phenotype; assay type: in vitro ADME
[17] = Plasma stability, cynomolgus monkey plasma; assay type: in vitro ADME
[18] = Plasma stability, human plasma; assay type: in vitro ADME
[19] = QWBA tissue distribution of radioactivity; assay type: in vivo; settings: oral [14C]ODV 200 mg/kg, rats
[20] = cynomolgus monkey, in vivo, iv, 10 mg/kg, 24 h
[21] = tested on: OATP1B1/3, P-gp, BCRP, ENT1/2, CNT3; settings: cited from earlier work
[22] = cited from earlier work; remark: listed apart in the source
[23] = in vivo, cyno; cited from earlier work
CES-1 = target: T1, CES-1 (Homo sapiens, UniProt P23141); experiment: Enzyme hydrolysis phenotype, fraction metabolized by CES-1; assay type: in vitro ADME
T1 sequence (P23141 18-567): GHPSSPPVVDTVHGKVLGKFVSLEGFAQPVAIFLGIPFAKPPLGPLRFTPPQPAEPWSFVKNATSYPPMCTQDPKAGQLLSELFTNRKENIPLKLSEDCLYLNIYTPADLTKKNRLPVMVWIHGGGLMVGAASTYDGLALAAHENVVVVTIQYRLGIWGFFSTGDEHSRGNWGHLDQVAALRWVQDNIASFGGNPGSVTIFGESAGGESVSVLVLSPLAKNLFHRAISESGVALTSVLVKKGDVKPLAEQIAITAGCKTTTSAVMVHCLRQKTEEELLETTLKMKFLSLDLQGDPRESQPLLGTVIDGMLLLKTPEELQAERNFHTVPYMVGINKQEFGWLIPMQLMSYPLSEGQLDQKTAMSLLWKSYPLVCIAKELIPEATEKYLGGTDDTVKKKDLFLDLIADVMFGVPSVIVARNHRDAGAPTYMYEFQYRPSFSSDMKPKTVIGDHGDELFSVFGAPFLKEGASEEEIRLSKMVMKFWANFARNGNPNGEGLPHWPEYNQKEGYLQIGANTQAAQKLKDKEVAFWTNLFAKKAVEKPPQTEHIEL

CatA = target: T2, CatA (Homo sapiens, UniProt P10619); experiment: Enzyme hydrolysis phenotype, fraction metabolized by CatA; assay type: in vitro ADME
T2 sequence (P10619 29-480): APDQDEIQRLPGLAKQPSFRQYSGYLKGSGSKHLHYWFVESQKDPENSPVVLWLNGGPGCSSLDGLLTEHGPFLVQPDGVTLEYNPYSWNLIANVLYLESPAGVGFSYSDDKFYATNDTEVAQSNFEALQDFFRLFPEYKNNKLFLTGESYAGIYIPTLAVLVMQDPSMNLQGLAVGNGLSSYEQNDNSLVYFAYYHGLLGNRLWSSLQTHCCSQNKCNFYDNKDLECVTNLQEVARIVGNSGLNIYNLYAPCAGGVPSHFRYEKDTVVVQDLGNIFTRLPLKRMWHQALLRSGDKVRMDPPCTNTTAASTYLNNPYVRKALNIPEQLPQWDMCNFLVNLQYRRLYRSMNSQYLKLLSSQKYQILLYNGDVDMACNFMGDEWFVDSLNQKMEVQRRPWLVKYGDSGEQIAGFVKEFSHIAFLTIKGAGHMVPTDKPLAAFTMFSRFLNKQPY

[24] = PBS, read-out: Solubility (PBS)
[25] = range over mouse, rat, dog, monkey, and human
[26] = assessed in mouse, rat, dog, monkey, and human
[27] = A-to-B, read-out: Permeability (MDCK A-to-B)
[28] = GS-441524 IV 30 min infusion 20 mg/kg
[29] = cynomolgus monkey, in vivo, iv, 10 mg/kg, analyte in plasma after IV RDV 10 mg/kg 30-min infusion, mean ± SD, N = 3, read-out: T1/2 in plasma (converted)
[30] = assessed in rat, dog, monkey, and human
[31] = ODV oral 11.6 mg/kg (9.4 mg-eq/kg)
[32] = male, Sprague Dawley, rat, in vivo, iv
[33] = cynomolgus monkey, in vivo, iv, 10 mg/kg

## N#CC1(c2ccc3c(=O)[nH]cnn23)OC(CO)C(O)C1O (stereo not drawn) [Deaminated nucleoside]
[1]; minor metabolite after oral ODV, rats and humans
  Level in feces, fold lower than GS-441524: 5- to 10 fold

## N#C[C@@]1(c2ccc3c(N)ncnn23)O[C@H](CO)[C@@H](O)[C@H]1O [GS-441524]
Solubility (PBS); [24]
  solubility: 26.5 µg/mL (≈ 91 µM)
[2]
  Time of plasma Cmax in both portal and systemic circulation: 1 h
[3]
  Transporter substrate (text): substrate for P-gp
[3]; human
  Transporter substrate: BCRP/P-gp ENT1/2/CNT3
Plasma protein; [25]
  Plasma protein binding (% free): 85–99 % free
[4]
  Radioactivity in Alveoli sac: ++ (2×) and +
  Radioactivity in Alveoli wall: +++
  Radioactivity in Blood vessels: +++
  Radioactivity in Bronchioles: +++
  Radioactivity in Bronchus (cartilage): ++ and +++
  Radioactivity in Bronchus (epithelium): ++ and +++
  Radioactivity in Bronchus (smooth muscle): ++
  Radioactivity in Trachea (representative): ++
[5]; [26]
  Plasma stability: Stable
[6]; [27]
  Papp A→B at 120 min: 0.16 ×10⁻⁶ cm/s
Adenosine deaminase
  Adenosine deaminase substrate: weak substrate for adenosine deaminase
[7]; [28]
  Plasma GS-441524 AUC0–24h: 124,000 ± 11,000 nM·h
  Plasma GS-441524 Tmax: 0.516 ± 0.058 h
LogD
  logD: < 0.3
[8]
  Stability in plasma: stable
[9]; oral solution (55 °C) of GS-441524, human PK
  Oral bioavailability of GS-441524, estimated: < 15%
[10]
  S9 Stability, Intestinal: Stable
[11]; analyte after IV RDV, humans
  Share of total radioactivity in plasma: ~ 53%
[11]; analyte after oral ODV, humans
  Share of total radioactivity in plasma: > 97%
  Share of total sample radioactivity in feces: 98%
[1]; rats
  Share of radioactivity in AUC-pooled plasma: approximately 70%
[1]; analyte after oral ODV, rats
  Share of total radioactivity in plasma: > 97%
  Share of total sample radioactivity in feces: ~ 85%
[12]; plasma, iv
  half-life: 0.7 to 3.4 h
[12]; plasma, po
  half-life: 1.4 to 4.2 h
[12]; IV, across species
  Volume of distribution: moderate volume of distribution
  clearance: low to moderate clearance
[12]; cynomolgus monkey, plasma, po
  bioavailability: ~5%
[13]
  Stability in plasma: stable
[14]; [29]
  half-life: 16.1 ± 4 h
[15]; [30]
  S9 Stability, Hepatic: Stable

## N#C[C@@]1(c2ccc3c(N)ncnn23)O[C@H](COP(=O)(O)OP(=O)(O)OP(=O)(O)O)[C@@H](O)[C@H]1O [GS-443902]
[14]; analyte in PBMC after IV RDV 10 mg/kg 30-min infusion, N = 3
  T1/2 in PBMC: 29.4 ± 3.0 h
[14]; cynomolgus monkey, in vivo, iv, 10 mg/kg, analyte in PBMC after IV RDV 10 mg/kg 30-min infusion, N = 3, read-out: T1/2 in PBMC (converted)
  half-life: 29 h

## C[C@H](NP(=O)(O)OC[C@H]1O[C@@](C#N)(c2ccc3c(N)ncnn23)[C@H](O)[C@@H]1O)C(=O)O [GS-704277]
[3]; human
  Transporter substrate: OATP1B1/3
[16]
  Enzyme hydrolysis phenotype: HINT1
Plasma protein; [25]
  Plasma protein binding (% free): 95–100 % free
[5]; assessed in monkey and human
  Plasma stability: Stable ^d
[17]; cynomolgus monkey plasma, 2 µM, 240 min incubation
  Stability in plasma: stable
[18]; human plasma, 2 µM, 240 min incubation
  Stability in plasma: stable
[1]; rats
  Share of radioactivity in AUC-pooled plasma: ~20%
[14]; [29]
  half-life: 0.56 ± 0.01 h

## CC(C)C(=O)OC[C@H]1O[C@@](C#N)(c2ccc3c(N)ncnn23)[C@H](O)[C@@H]1O [ODV, obeldesivir]
Solubility (PBS); [24]
  solubility: ~1000 µg/mL (≈ 2770 µM)
[2]
  Time of plasma Cmax in both portal and systemic circulation: 0.25 h
[2]; portal vs systemic plasma ODV exposures, oral ODV 14.4 mg/kg
  Hepatic extraction of intact ODV absorbed: near complete hepatic extraction
[3]
  Transporter substrate: BCRP/P-gp
  Transporter substrate (text): substrate for both BCRP and P-gp transporters
[16]
  Enzyme hydrolysis phenotype: CES-1/2
Plasma protein; [25]
  Plasma protein binding (% free): 56–76 % free
[19]
  Persistence of radioactivity in tissues: little [^14C]ODV-related radioactivity was detected after 24 h
  Time by which broad distribution of drug-associated radioactivity was observed: ≤ 0.25 h
[5]; [26]
  Plasma stability: Unstable (stable in dog)
[6]; [27]
  Papp A→B at 120 min: 1.8 ×10⁻⁶ cm/s
[7]; [31]
  Plasma GS-441524 AUC0–24h: 21,600 ± 11,000 nM·h
  Plasma GS-441524 T1/2: 2.62 ± 0.55 h
  Plasma GS-441524 Tmax: 1.67 ± 0.58 h
[7]; read-out: Plasma GS-441524 Cmax, ODV oral 11.6 mg/kg (9.4 mg-eq/kg)
  Cmax: 7.57 ± 6.07 µM
LogD
  logD: 0.9
[9]; clinical ODV 350 mg oral tablet
  Oral bioavailability of GS-441524, estimated: 41% to 50
[10]; PMSF-free GI S9 from cynomolgus monkeys and humans, 2 µM
  Stability in GI S9 fractions: poor
[10]
  S9 Stability, Intestinal: Unstable
[11]; oral ODV, humans
  Fecal excretion, of administered dose, mean: 32%
  Total mean [14C] dose recovery: greater than 90%
  Urinary excretion, mean: 58%
[1]; oral ODV, rats
  Fecal excretion, of administered dose, mean: 52%
  Total mean [14C] dose recovery: greater than 90%
  Urinary excretion, mean: 33%
[15]; Hep S9 from cynomolgus monkeys and humans, 2 µM
  Stability in Hep S9 fractions: poor
[15]; [30]
  S9 Stability, Hepatic: Unstable

## CCC(CC)COC(=O)[C@H](C)N[P@](=O)(OC[C@H]1O[C@@](C#N)(c2ccc3c(N)ncnn23)[C@H](O)[C@@H]1O)Oc1ccccc1 [RDV, remdesivir, reference compound]
Solubility (PBS)
  solubility: 40.1 µg/mL (≈ 66.5 µM)
[20]
  Lung GS-443902 C24h: 1.39 ± 0.15 nmol/g
  PBMC GS-443902 C24h: 31.0 ± 11.8 µM
[3]; human
  Transporter substrate: OATP1B1/P-gp
[21]
  Transporter substrate (text): substrate for both OATP1B1 and P-gp
[22]
  Stability in hepatic S9: unstable
[23]
  Oral bioavailability: < 1%
Plasma protein; plasma
  Plasma protein binding (% free): 6–14 % free
[5]
  Plasma stability: Moderately Stable (unstable in mouse, rat)
[6]
  Papp A→B at 120 min: 1.32 ×10⁻⁶ cm/s
[17]; cynomolgus monkey, plasma
  half-life at 2 µM: 6.42 h
LogD
  logD: 2.5
[18]; human, plasma
  half-life at 2 µM: 1.3 h
[11]; in vivo, iv
  Fecal excretion, of administered dose: ~18%
  Total mean [14C] dose recovery: greater than 90%
  Urinary excretion, mean: 74%
[1]; [32]
  Fecal excretion, of administered dose: approximately 25%
  Total mean [14C] dose recovery: greater than 90%
  Urinary excretion, mean: 61%
other
  Predicted human hepatic extraction: > 0.9
CES-1
  Enzyme hydrolysis phenotype (fm), CES-1: 80%
CatA
  Enzyme hydrolysis phenotype (fm), CatA: 10%
[14]; [33]
  Vd: 0.504 ± 0.175 L/kg
  clearance: 40 mL/min/kg
[15]
  S9 Stability, Hepatic: Unstable
